Assays:
TMEPAI [1] = experiment: TMEPAI mRNA (QPCR) and protein expression in MDA-MB-231 cells with TGF-β; assay type: cell-based, human
Description: (§1) FIGS. 1A-B: Relative expression of TMEPAI mRNA and protein in normal and cancer cells. FIG. 1A. Effect of TGF-β on TMEPAI mRNA expression by QPCR in normal human mammary epithelial (HMEC) and MDA-MB-231 breast cancer cells, which is inhibited by TGF-β receptor I kinase inhibitor SB431542 (SB). FIG. 1B. Relative expression of TMEPAI protein in HMEC and MDA-MB-231 cells without or with TGF-β stimulation.
(§2) TMEPAI Expression in Normal Mammary Epithelial Cells Vs Breast Cancer Cells. […] The inventors tested the expression of TMEPAI in various breast cancer lines by immunoblotting. […] Moreover, TMEPAI is also expressed by aggressive HER2-positive breast cancer cells that either coexpress estrogen receptor (BT-474) or not (SK-BR-3) (FIG. 2).

MDA-MB-231 tumors = experiment: Subcutaneous MDA-MB-231 tumors in athymic mice treated with celastrol; assay type: in vivo; conditions: 2 mg/kg, 3 times a week for 4 weeks
Protocol: (§3) FIG. 11A. athymic mice bearing subcutaneous MDA-MB-231 tumors that were treated for 3 times a week for 4 consecutive weeks with 2 mg/kg celastrol or vehicle alone. FIG. 11B. Tumor weights following celastrol treatment, P<0.001. […] FIG. 11C. […] Toxicity of celastrol administered was monitored by measuring total body weight.
(§4) Pharmacological Inhibition of TMEPAI Expression Reduces Tumor Growth In Vivo. […] Compared to vehicle-treatment, celastrol treatment led to a ˜6-fold reduction in tumor burden (FIG. 11B). […] Thus, these preclinical studies confirm that TMEPAI expressing breast cancers thrive by suppressing tumor suppressive TGF-β signaling and are therefore susceptible to pharmacological inhibition of TMEPAI expression by celastrol.

[2] = cited from earlier work
[3] = Total body weight of tumor-bearing mice treated with celastrol (toxicity); assay type: in vivo; conditions: 2 mg/kg
Protocol: as §3, §4

[4] = test system: normal mammary epithelial cells MCF-10A; experiment: Growth of normal mammary epithelial MCF-10A cells with celastrol; assay type: cell-based; conditions: 1 μM
Description: FIGS. 10A-D: Celastrol is novel inhibitor of TMEPAI expression and cancer cell growth by enhancing growth suppressive TGF-β signaling. FIG. 10A. […] FIG. 10B. Celastrol had no effect on the growth of normal mammary epithelial cells MCF-10A. FIG. 10C. Celastrol inhibited non-Smad signaling (left panel) and enhanced Smad signaling (right panel) by inhibiting TMEPAI expression. FIG. 10D. Celastrol enhanced Smad signaling as measured by 12XCAGA-Luciferase reporter assay.
Terpinoid Derivative Celastrol Blocked TMEPAI Expression and Reversed TMEPAI Mediated Effects. The inventors identified tripterine (celastrol), a triterpinoid, having the ability to block TGF-β induced TMEPAI expression after screening several terpinoid derivatives with reactive α,β-unsaturated ketones in their structure. […] Only a mild decrease in the proliferation of normal MCF-10A cells was observed even at a 10-fold higher dose of celastrol (not shown). […] Equally, celastrol inhibited non-Smad signaling (FIG. 10C, left panel). The enhancement of Smad signaling is also confirmed by increased 12XCAGA-luciferase reporter activity (FIG. 10D).

[5] = Body weights of xenograft-bearing nude mice treated with CLST-NP or CLST (toxicity); assay type: in vivo; conditions: doses administered: 0.2 mg/kg CLST-NP, 2 mg/Kg CLST
Protocol: (FIG. 12A) Representative pictures of tumors excised from nude mice that harbored xenografts of human breast cancer cells (MDA-MB-231). (Veh-NP) 2 mg/kg drug-free liposomes, 0.2 mg/kg celastrol containing liposomes (CLST-NP) or 2 mg/Kg celastrol alone (CLST) were administered by intraperitoneal injection every alternate day for first week and every 2 day interval for following week for a total of two weeks period. (FIG. 12B) Tumor weights were shown *p<0.01 versus Vehicle control group. (FIG. 12C) Tumor volumes measured before sacrificing the animals. * p<0.01 versus Vehicle control group. (FIG. 12D) Similarities in body weights of animals treated with vehicle or drugs indicate non-toxicity of CLST-NP and CLST at the doses administered.
Similarities in body weights of animals treated with vehicle or drugs indicate non-toxicity of CLST-NP and CLST at the doses administered.

TMEPAI [6] = experiment: TMEPAI RNA and protein expression in normal human mammary epithelial cells (HMEC) with TGF-β; assay type: cell-based; conditions: in response to TGF-β
Description: as §1, §2

[7] = MDA-MB-231 cells, within 6 h of treatment

## NC(=O)c1ccc(-c2nc(-c3ccc4c(c3)OCO4)c(-c3ccccn3)[nH]2)cc1 [SB431542]
TMEPAI [1]; HMEC and MDA-MB-231 cells
  effect of TGF-β on TMEPAI mRNA expression by QPCR in presence of inhibitor: inhibited

## CC1=C(O)C(=O)C=C2C1=CC=C1[C@@]2(C)CC[C@@]2(C)[C@@H]3C[C@](C)(C(=O)O)CC[C@]3(C)CC[C@]12C [celastrol]
MDA-MB-231 tumors
  reduction in tumor burden compared to vehicle-treatment (tumor weights): ~6 fold
MDA-MB-231 tumors; MDA-MB-231 cells expressing GFP-luciferase
  luminescence signal in the tumors: 500-2500 RLU
[2]
  aqueous solubility: low
[3]
  total body weights of mice versus vehicle: remained the same
  toxic effects at the dose given to mice: no toxic effects
[4]
  growth of normal MCF-10A cells: no effect
[5]
  toxicity judged from body weights similar to vehicle: non-toxicity

## TGF-β
TMEPAI [1]; [7]
  induction of TMEPAI mRNA: > 40 fold
  induction of TMEPAI proteins: ~9 fold
TMEPAI [6]
  induction of TMEPAI RNA and proteins: poorly induced

— patent US10398661B2, “Methods for classifying a cancer as susceptible to TMEPAI-directed therapies and treating such cancers” (THE BOARD OF REGENTS OF THE UNIVERSITY OF TEXAS SYSTEM, priority 2013, dated 2019)
